Consider 28 compounds from patent US8952163B2, “Substituted hydroxamic acids and uses thereof” (Millennium Pharmaceuticals, Inc., priority 2010, dated 2015).

Structures are written as SMILES.

The target of the assay is T1, purified human HDAC6 (Homo sapiens, UniProt Q9UBN7).
T1 construct: purchased BPS Bioscience 5006
T1 sequence (Q9UBN7 1-1215): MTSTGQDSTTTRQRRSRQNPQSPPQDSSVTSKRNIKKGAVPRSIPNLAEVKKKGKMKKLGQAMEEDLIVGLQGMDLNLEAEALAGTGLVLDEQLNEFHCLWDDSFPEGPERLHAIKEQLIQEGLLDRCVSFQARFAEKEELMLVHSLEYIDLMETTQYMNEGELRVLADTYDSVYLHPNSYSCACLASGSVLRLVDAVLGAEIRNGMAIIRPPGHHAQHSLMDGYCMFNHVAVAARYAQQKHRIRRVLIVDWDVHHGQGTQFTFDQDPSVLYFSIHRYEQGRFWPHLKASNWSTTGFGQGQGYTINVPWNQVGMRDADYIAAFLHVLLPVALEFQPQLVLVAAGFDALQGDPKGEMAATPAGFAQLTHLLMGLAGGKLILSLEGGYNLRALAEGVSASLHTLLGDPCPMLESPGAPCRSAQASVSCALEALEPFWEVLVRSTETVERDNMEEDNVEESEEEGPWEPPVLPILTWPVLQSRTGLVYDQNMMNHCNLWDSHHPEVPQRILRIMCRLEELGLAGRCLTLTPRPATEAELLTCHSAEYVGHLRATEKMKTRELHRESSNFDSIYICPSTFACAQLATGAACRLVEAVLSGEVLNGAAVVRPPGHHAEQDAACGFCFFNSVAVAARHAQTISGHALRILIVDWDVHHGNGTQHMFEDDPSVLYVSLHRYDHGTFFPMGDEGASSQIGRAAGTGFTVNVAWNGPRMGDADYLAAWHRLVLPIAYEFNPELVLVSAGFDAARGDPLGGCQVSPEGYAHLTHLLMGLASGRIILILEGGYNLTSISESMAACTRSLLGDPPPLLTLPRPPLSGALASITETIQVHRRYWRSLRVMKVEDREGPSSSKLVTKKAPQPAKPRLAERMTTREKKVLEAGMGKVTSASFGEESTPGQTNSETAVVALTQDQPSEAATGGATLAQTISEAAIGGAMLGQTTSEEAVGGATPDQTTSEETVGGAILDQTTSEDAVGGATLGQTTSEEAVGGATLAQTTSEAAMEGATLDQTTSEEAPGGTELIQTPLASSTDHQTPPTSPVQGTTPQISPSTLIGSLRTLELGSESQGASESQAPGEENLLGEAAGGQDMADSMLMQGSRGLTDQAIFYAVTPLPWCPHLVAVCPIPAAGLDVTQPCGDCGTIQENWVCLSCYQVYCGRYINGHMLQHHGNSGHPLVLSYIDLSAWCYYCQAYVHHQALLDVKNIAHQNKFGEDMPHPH
In words: HDAC6 Enzyme Assay. The following applies: test compound at 1.235 μM; substrate Ac-Arg-Gly-Lys(Ac)-AMC, 1 hour at 30° C.; read-out: Percent Inhibition at 1.235 μM. The format is biochemical. On the procedure: To measure the inhibition of HDAC6 activity, purified human HDAC6 (BPS Bioscience; Cat. No. 5006) is incubated with substrate Ac-Arg-Gly-Lys(Ac)-AMC peptide (Bachem Biosciences; Cat. No. I-1925) for 1 hour at 30° C. in the presence of test compounds or vehicle DMSO control. The reaction is stopped with the HDAC inhibitor trichostatin A (Sigma; Cat. No. T8552) and the amount of Arg-Gly-Lys-AMC generated is quantitated by digestion with trypsin (Sigma; Cat. No. T1426) and subsequent measurement of the amount of AMC released using a fluorescent plate reader (Pherastar, BMG Technologies) set at Ex 340 nm and Em 460 nm. Concentration response curves are generated by calculating the fluorescence increase in test compound-treated samples relative to DMSO-treated controls, and percentage inhibition values at a single concentration or enzyme inhibition (IC50) values are determined from those curves. One skilled in the art will appreciate that the values generated either as percentage inhibition at a single concentration or IC50 values are subject to experimental variation.
In general, inhibition refers to the change of the read-out against control, counted positive when it falls. For `O=C(NO)c1cnc2c(c1)CN(C(=O)c1[nH]c3ccccc3c1-c1ccccc1)CC2` [Compound I-29, N-hydroxy-6-[(3-phenyl-1H-indol-2-yl)carbonyl]-5,6,7,8-tetrahydro-1,6-naphthyridine-3-carboxamide], the inhibition at 1.235 µM came out at 97.8%.

With `CC(C)(C)C(=O)N1CCc2ncc(C(=O)NO)cc2C1` [Compound I-30, 6-(2,2-dimethylpropanoyl)-N-hydroxy-5,6,7,8-tetrahydro-1,6-naphthyridine-3-carboxamide], the inhibition at 1.235 µM came out at 85%.

As for `O=C(NO)c1cnc2c(c1)CN(C(=O)C13CC4CC(CC(C4)C1)C3)CC2` [Compound I-31, 6-[1-adamantylcarbonyl]-N-hydroxy-5,6,7,8-tetrahydro-1,6-naphthyridine-3-carboxamide], the inhibition at 1.235 µM amounted to 93.8%.

`COc1ccc(C(=O)N2CCc3ncc(C(=O)NO)cc3C2)cc1` [Compound I-32, N-hydroxy-6-(4-methoxybenzoyl)-5,6,7,8-tetrahydro-1,6-naphthyridine-3-carboxamide]: the inhibition at 1.235 µM is 93%.

Turning to `O=C(NO)c1ccc2c(n1)CCN(C(=O)c1ccc(Cl)cc1)C2` [Compound I-33, 6-(4-chlorobenzoyl)-N-hydroxy-5,6,7,8-tetrahydro-1,6-naphthyridine-2-carboxamide], the inhibition at 1.235 µM came to 68.8%.

In the case of `O=C(NO)c1ccc2c(n1)CCN(C(=O)Nc1ccccc1-c1ccccc1)C2` [Compound I-34, N^6-biphenyl-2-yl-N^2-hydroxy-7,8-dihydro-1,6-naphthyridine-2,6(5H)-dicarboxamide], the inhibition at 1.235 µM is 48.2%.

Regarding `COc1ccc(C(=O)N2CCc3nc(C(=O)NO)ccc3C2)cc1` [Compound I-35, N-hydroxy-6-(4-methoxybenzoyl)-5,6,7,8-tetrahydro-1,6-naphthyridine-2-carboxamide], the inhibition at 1.235 µM came to 67%.

`CCCNC(=O)N1CCc2nc(C(=O)NO)ccc2C1` [Compound I-36, N^2-hydroxy-N^6-propyl-7,8-dihydro-1,6-naphthyridine-2,6(5H)-dicarboxamide]: the inhibition at 1.235 µM worked out at 26.5%.

On to `O=C(NO)c1cnc2c(c1)CCN(C(=O)c1[nH]c3ccccc3c1-c1ccccc1)C2` [Compound I-37, N-hydroxy-7-[(3-phenyl-1H-indol-2-yl)carbonyl]-5,6,7,8-tetrahydro-1,7-naphthyridine-3-carboxamide], for which the inhibition at 1.235 µM was 93.7%.

On to `O=C(NO)c1ccc2c(n1)CCN(Cc1ccccc1)C2` [Compound I-38, 6-benzyl-N-hydroxy-5,6,7,8-tetrahydro-1,6-naphthyridine-2-carboxamide], for which the inhibition at 1.235 µM is 60.2%.

Turning to `Cn1cccc1C(=O)N1CCc2ncc(C(=O)NO)cc2C1` [Compound I-39, N-hydroxy-6-[(1-methyl-1H-pyrrol-2-yl)carbonyl]-5,6,7,8-tetrahydro-1,6-naphthyridine-3-carboxamide], the inhibition at 1.235 µM turned out to be 92.5%.

Take `CC(C)(C)c1ccccc1NC(=O)N1CCc2nc(C(=O)NO)ccc2C1` [Compound I-40, N^6-(2-tert-butylphenyl)-N^2-hydroxy-7,8-dihydro-1,6-naphthyridine-2,6(5H)-dicarboxamide]: the inhibition at 1.235 µM was 50.4%.

As to `CC(C)(C)c1ccc(C(=O)N2CCc3cc(C(=O)NO)cnc3C2)cc1` [Compound I-41, 7-(4-tert-butylbenzoyl)-N-hydroxy-5,6,7,8-tetrahydro-1,7-naphthyridine-3-carboxamide], the inhibition at 1.235 µM amounted to 93.4%.

`O=C(NO)c1cnc2c(c1)CN(C(=O)c1ccc(-c3ccccn3)s1)CC2` [Compound I-42, N-hydroxy-6-[(5-pyridin-2-yl-2-thienyl)carbonyl]-5,6,7,8-tetrahydro-1,6-naphthyridine-3-carboxamide]: the inhibition at 1.235 µM worked out at 97.5%.

Turning to `Cc1onc(-c2ccccc2)c1NC(=O)N1CCc2nc(C(=O)NO)ccc2C1` [Compound I-43, N^2-hydroxy-N^6-(5-methyl-3-phenylisoxazol-4-yl)-7,8-dihydro-1,6-naphthyridine-2,6(5H)-dicarboxamide], the inhibition at 1.235 µM is 23.4%.

Turning to `O=C(NO)c1cnc2c(c1)CN(C(=O)c1cc3ccccc3o1)CC2` [Compound I-44, 6-(1-benzofuran-2-ylcarbonyl)-N-hydroxy-5,6,7,8-tetrahydro-1,6-naphthyridine-3-carboxamide], the inhibition at 1.235 µM is 94.9%.

As to `CC(C)(C)NC(=O)N1CCc2nc(C(=O)NO)ccc2C1` [Compound I-45, N^6-(tert-butyl)-N^2-hydroxy-7,8-dihydro-1,6-naphthyridine-2,6(5H)-dicarboxamide], the inhibition at 1.235 µM stood at 39%.

As for `CC(C)(C)C(=O)N1CCc2nc(C(=O)NO)ccc2C1` [Compound I-46, 6-(2,2-dimethylpropanoyl)-N-hydroxy-5,6,7,8-tetrahydro-1,6-naphthyridine-2-carboxamide], the inhibition at 1.235 µM came out at 59%.

As to `CCc1cccc(CC)c1NC(=O)N1CCc2nc(C(=O)NO)ccc2C1` [Compound I-47, N^6-(2,6-diethylphenyl)-N^2-hydroxy-7,8-dihydro-1,6-naphthyridine-2,6(5H)-dicarboxamide], the inhibition at 1.235 µM came to 34.3%.

As for `COc1ccc(C(=O)N2CCc3cc(C(=O)NO)cnc3C2)cc1` [Compound I-48, N-hydroxy-7-(4-methoxybenzoyl)-5,6,7,8-tetrahydro-1,7-naphthyridine-3-carboxamide], the inhibition at 1.235 µM came to 91.1%.

For `O=C(NO)c1ccc2c(n1)CCN(C(=O)c1cc3ccccc3s1)C2` [Compound I-49, 6-(1-benzothien-2-ylcarbonyl)-N-hydroxy-5,6,7,8-tetrahydro-1,6-naphthyridine-2-carboxamide], the inhibition at 1.235 µM was 94.1%.

For `CC(C)(C)c1ccc(C(=O)N2CCc3ncc(C(=O)NO)cc3C2)cc1` [Compound I-50, 6-(4-tert-butylbenzoyl)-N-hydroxy-5,6,7,8-tetrahydro-1,6-naphthyridine-3-carboxamide], the inhibition at 1.235 µM is 95.1%.

`O=C(NO)c1ccc2c(n1)CCN(C(=O)Nc1ccccc1)C2` [Compound I-51, N^2-hydroxy-N^6-phenyl-7,8-dihydro-1,6-naphthyridine-2,6(5H)-dicarboxamide]: the inhibition at 1.235 µM was found to be 63.4%.

On to `O=C(NO)c1cnc2c(c1)CN(C(=O)c1cc3ccccc3s1)CC2` [Compound I-52, 6-(1-benzothien-2-ylcarbonyl)-N-hydroxy-5,6,7,8-tetrahydro-1,6-naphthyridine-3-carboxamide], for which the inhibition at 1.235 µM amounted to 97.4%.

Consider `O=C(NO)c1cnc2c(c1)CN(C(=O)c1ccc(-c3ccccc3)cc1)CC2` [Compound I-53, 6-(biphenyl-4-ylcarbonyl)-N-hydroxy-5,6,7,8-tetrahydro-1,6-naphthyridine-3-carboxamide], for which the inhibition at 1.235 µM stood at 96.9%.

For the compound `O=C(NO)c1ccc2c(n1)CCN(C(=O)Nc1ccc(-c3ccccc3)s1)C2` [Compound I-54, N^2-hydroxy-N^6-(5-phenyl-2-thienyl)-7,8-dihydro-1,6-naphthyridine-2,6(5H)-dicarboxamide], the inhibition at 1.235 µM stood at 67.2%.

In the case of `O=C(NO)c1ccc2c(n1)CCN(C(=O)NCCc1ccccc1)C2` [Compound I-55, N^2-hydroxy-N^6-(2-phenylethyl)-7,8-dihydro-1,6-naphthyridine-2,6(5H)-dicarboxamide], the inhibition at 1.235 µM came out at 58.3%.

For the compound `CC1(C(=O)N2CCc3ncc(C(=O)NO)cc3C2)CCCCC1` [Compound I-56, N-hydroxy-6-[(1-methylcyclohexyl)carbonyl]-5,6,7,8-tetrahydro-1,6-naphthyridine-3-carboxamide], the inhibition at 1.235 µM is 93%.
